# Reference: US20080234384A1, “BIARYL AND BIHETEROARYL COMPOUNDS USEFUL IN TREATING IRON DISORDERS” (XENON PHARMACEUTICALS INC., priority 2007, published 2008)
# Structures can show the parent of a compound that is named as a salt.
# Molecular target: T1, DMT1 (Homo sapiens, UniProt P49281)
# T1 sequence (P49281 1-568): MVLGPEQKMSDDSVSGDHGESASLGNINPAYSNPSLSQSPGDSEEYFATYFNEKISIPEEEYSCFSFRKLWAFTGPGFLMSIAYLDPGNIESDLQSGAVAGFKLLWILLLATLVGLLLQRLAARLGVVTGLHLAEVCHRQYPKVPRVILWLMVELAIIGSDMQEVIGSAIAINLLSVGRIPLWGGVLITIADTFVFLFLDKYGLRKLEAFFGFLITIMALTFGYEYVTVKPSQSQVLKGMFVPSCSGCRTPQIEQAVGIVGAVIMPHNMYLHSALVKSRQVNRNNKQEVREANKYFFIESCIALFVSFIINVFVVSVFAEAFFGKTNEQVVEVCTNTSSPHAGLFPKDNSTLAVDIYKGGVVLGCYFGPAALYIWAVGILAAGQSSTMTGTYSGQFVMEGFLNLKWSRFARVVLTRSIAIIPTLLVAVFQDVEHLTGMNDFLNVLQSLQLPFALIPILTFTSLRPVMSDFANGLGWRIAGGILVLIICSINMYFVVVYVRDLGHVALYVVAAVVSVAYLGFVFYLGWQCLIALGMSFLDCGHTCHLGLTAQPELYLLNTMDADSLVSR
# Assay: DMT1 Activity Assay (In Vitro Assay)
# Type: cell-based
# Settings: read-out: IC50 Activity Level
# Source text: In particular, identification of the compounds of the invention ability to modulate, preferably to inhibit, DMT1 activity, can be assessed using a variety of in vitro and in vivo assays, for measuring uptake of reduced iron (Fe^2+). One such protocol involves the screening of chemical agents for ability to modulate the activity of DMT1 thereby identifying it as a modulating agent. The in vitro activity of DMT1 can be measured in cell based assays by either directly measuring iron flux (using a radioactively labelled iron ^55Fe) or by measuring the fluorescence of a cell permeable iron fluorophore such as calcein. Stable cell lines overexpressing DMT1 are exposed to ^55Fe or loaded with calcein and then compound is applied. […] Alternatively, in another format electrophysiological techniques can be used to measure the current or iron or other metals traversing the cell membrane with DMT1 in a Xenopus oocyte or other cell based system (Gunshin et al., Nature, 1997, 31; 388(6641):482-8).
# This example discloses various in vitro assay for testing and profiling test agents against DMT1 stably expressed in cells of either an endogenous or recombinant origin. These assays can use stable cell lines overexpressing DMT1 or intestinal cells and intestinal tissue expressing endogenous DMT1. DMT1 function could also be assessed in other cell types that express DMT1. Of greatest relevance would be the erythrocytes (e.g. K562 cells) or hepatocytes (e.g. […]).
# DMT1 function can be assessed in a number of ways, including monitoring fluorescence changes of an iron fluorophore (e.g. calcein), monitoring uptake of radiolabelled iron (55Fe or ^59Fe) (Picard et al., J. Biol. Chem., 2000, 275(46):35738-45 and Wetli et al., Chem. Biol. 2006 September; 13(9):965-72), or by assessing the current or transport of iron and other metals into the cells or tissues using standard electrophysiological techniques (Gunshin et al., Nature, 1997, 388(6641):482-8.).
# Variations of these assays involve alterations of incubation times, the iron status of the cells and tissues (which may be modulated by chemical chelators or by harvesting from iron deficient animals), the metal cation detected and the pH of the reaction can generally be made by conventional techniques known to those skilled in the art.
row,Compound,IC50
1,"COc1ccc(Sc2ccc(F)cc2CSC(=N)N)c(CSC(=N)N)c1 [Example 1.6, 2-[2-(2-carbamimidoylsulfanylmethyl-4-methoxyphenylsulfanyl)-5-fluorobenzyl]isothiourea dihydrobromide]",100 to 1000 nM
2,"N=C(N)SCc1ccccc1Sc1cc(F)c(F)cc1CSC(=N)N [Example 1.9, 2-[2-(2-carbamimidoylsulfanylmethyl-4,5-difluorophenylsulfanyl)-benzyl]isothiourea dihydrobromide]",100 to 1000 nM
3,"N=C(N)SCc1ccccc1Sc1ccc(F)cc1CSC(=N)N [Example 1.2, 2-[2-(2-carbamimidoylsulfanylmethyl-4-fluorophenylsulfanyl)benzyl]-isothiourea dihydrobromide]",100 to 1000 nM
4,"Cc1cccc(CSC(=N)N)c1Sc1ccccc1CSC(=N)N [Example 1.8, 2-[2-(2-carbamimidoylsulfanylmethyl-6-methylphenylsulfanyl)-benzyl]isothiourea dihydrobromide]",≥ 1000 nM
5,"N=C(N)SCc1cc(Cl)ccc1Sc1ccc(Cl)cc1CSC(=N)N [Example 1.22, 2-[2-(2-carbamimidoylsulfanylmethyl-4-chlorophenylsulfanyl)-5-chlorobenzyl]isothiourea dihydrobromide]",≥ 1000 nM
6,"N=C(N)SCc1cc(F)ccc1Sc1cc(F)ccc1CSC(=N)N [Example 1.15, 2-[2-(2-carbamimidoylsulfanylmethyl-5-fluorophenylsulfanyl)-5-fluorobenzyl]isothiourea dihydrobromide]",100 to 1000 nM
7,"Cc1ccc(CSC(=N)N)c(Sc2ccc(F)cc2CSC(=N)N)c1 [Example 1.5, 2-[2-(2-carbamimidoylsulfanylmethyl-5-methylphenylsulfanyl)-5-fluorobenzyl]isothiourea dihydrobromide]",≥ 1000 nM
8,"CNC(=N)SCc1ccccc1Sc1ccccc1CSC(=N)NC [Example 1.29, 2-[2-(2-methylcarbamimidoylsulfanylmethylphenylsulfanyl)benzyl]-methylisothiourea dihydrobromide]",≥ 1000 nM
9,"N=C(N)SCc1cc(F)ccc1Sc1c(CSC(=N)N)cccc1[N+](=O)[O-] [Example 1.17, 2-[2-(2-carbamimidoylsulfanylmethyl-4-fluorophenylsulfanyl)-3-nitrobenzyl]isothiourea dihydrobromide]",≥ 1000 nM
10,"N=C(N)SCc1cc(F)ccc1Sc1ccc(F)cc1CSC(=N)N [Example 2, 2-[2-(2-carbamimidoylsulfanylmethyl-4-fluoro-phenylsulfanyl)-5-fluoro-benzyl]-isothiourea dihydrobromide]",100 to 1000 nM
11,"N=C(N)SCc1ccccc1Sc1ccc(Cl)cc1CSC(=N)N [Example 1.26, 2-[2-(2-carbamimidoylsulfanylmethylphenylsulfanyl)-5-chlorobenzyl]-isothiourea dihydrobromide]",100 to 1000 nM
12,"N=C(N)SCCc1cc(Cl)ccc1Sc1ccc(F)cc1CSC(=N)N [Example 1.24, 2-[2-(2-carbamimidoylsulfanylethyl-4-chlorophenylsulfanyl)-5-fluorobenzyl]isothiourea dihydrobromide]",100 to 1000 nM
13,"N=C(N)SCc1cc(F)ccc1Sc1cc(Cl)ccc1CSC(=N)N [Example 1.7, 2-[2-(2-carbamimidoylsulfanylmethyl-5-chloro-phenylsulfanyl)-5-fluoro-benzyl]-isothiourea dihydrobromide]",100 to 1000 nM
14,"COc1ccc(Sc2ccccc2CSC(=N)N)c(CSC(=N)N)c1 [Example 1.4, 2-[2-(2-carbamimidoylsulfanylmethyl-4-methoxyphenylsulfanyl)-benzyl]isothiourea dihydrobromide]",≥ 1000 nM
15,"N=C(N)SCc1cc(F)ccc1Sc1ccc(C(F)(F)F)cc1CSC(=N)N [Example 1.18, 2-[2-(2-carbamimidoylsulfanylmethyl-4-fluorophenylsulfanyl)-5-(trifluoromethyl)benzyl]isothiourea dihydrobromide]",≥ 1000 nM
16,"N=C(N)SCc1ccccc1Sc1ccc2ccccc2c1CSC(=N)N [Example 1.13, 2-[2-(1-carbamimidoylsulfanylmethylnaphthalen-2-ylsulfanyl)benzyl]-isothiourea dihydrobromide]",≥ 1000 nM

# The next lines start with the values.
row,IC50,Compound
1,≥ 1000 nM,"N=C(N)SCc1ccc(Cl)cc1Oc1cc([N+](=O)[O-])ccc1CSC(=N)N [Example 2.9, 2-[2-({[amino(imino)methyl]thio}methyl)-5-chlorophenoxy]-4-nitrobenzyl imidothiocarbamate dihydrobromide]"
2,≥ 1000 nM,"N=C(N)SCc1cc(F)ccc1S(=O)(=O)c1ccc(F)cc1CSC(=N)N [Example 2.4, 2-[2-(2-carbamimidoylsulfanylmethyl-4-fluorophenylsulfonyl)-5-fluorobenzyl]isothiourea dihydrobromide]"
3,≥ 1000 nM,"N=C(N)CCCc1ccccc1Sc1ccccc1CCCC(=N)N [Example 6.2, 2-(6-(3-amidinopropyl)phenyl)thio-1-(3-amidinopropyl)benzene]"
4,100 to 1000 nM,"N=C(N)SCc1ccccc1Oc1ccc(F)cc1CSC(=N)N [Example 2.21, 2-[2-({[amino(imino)methyl]thio}methyl)-4-fluorophenoxy]benzyl imidothiocarbamate dihydrobromide]"
5,≥ 1000 nM,"N=C(N)Cc1ccccc1Sc1ccccc1CC(=N)N [Example 6.1, 2-(6-(amidinomethyl)phenyl)thio-1-(amidinomethyl)benzene]"
6,≥ 1000 nM,"N=C(N)SCc1ccccc1Oc1ccc(Cl)cc1CSC(=N)N [Example 2.16, 2-[2-({[amino(imino)methyl]thio}methyl)-4-chlorophenoxy]benzyl imidothiocarbamate dihydrobromide]"
7,≥ 1000 nM,"N=C(N)SCc1ccccc1C(=O)c1cc(Cl)ccc1CSC(=N)N [Example 2.28, 2-(6-(amidinothiomethyl)phenyl)carbonyl-1-(amidinothiomethyl)-4-chlorobenzene dihydrobromide dihydrobromide]"
8,100 to 1000 nM,"N=C(N)SCc1cc(F)ccc1Oc1cc(Cl)ccc1CSC(=N)N [Example 2.30, 2-[2-({[amino(imino)methyl]thio}methyl)-5-chlorophenoxy]-5-fluorobenzyl imidothiocarbamate dihydrobromide]"
9,≥ 1000 nM,"N=C(N)SCc1ccccc1C(=O)c1cc(F)ccc1CSC(=N)N [Example 2.27, 2-(6-(amidinothiomethyl)phenyl)carbonyl-1-(amidinothiomethyl)-4-fluorobenzene dihydrobromide]"
10,≥ 1000 nM,"N#Cc1ccc(Sc2ccc(Cl)cc2CSC(=N)N)c(CSC(=N)N)c1 [Example 2.8, 2-{[2-({[amino(imino)methyl]thio}methyl)-4-chlorophenyl]thio}-5-cyanobenzyl imidothiocarbamate dihydrobromide]"
11,≥ 1000 nM,"N=C(N)SCc1cc(Cl)ccc1Oc1ccc([N+](=O)[O-])cc1CSC(=N)N [Example 2.20, 2-[2-({[amino(imino)methyl]thio}methyl)-4-chlorophenoxy]-5-nitrobenzyl imidothiocarbamate dihydrobromide]"
12,≥ 1000 nM,"N=C(N)SCc1cc([N+](=O)[O-])ccc1Oc1cc(Cl)ccc1CSC(=N)N [Example 2.19, 2-[2-({[amino(imino)methyl]thio}methyl)-5-chlorophenoxy]-5-nitrobenzyl imidothiocarbamate dihydrobromide]"
13,≥ 1000 nM,"N=C(N)SCc1cc(F)ccc1Sc1sccc1CSC(=N)N [Example 2.6, (2-{[2-({[amino(imino)methyl]thio}methyl)-4-fluorophenyl]thio}-3-thienyl)methyl imidothiocarbamate dihydrochloride]"
14,≥ 1000 nM,"N=C(N)SCc1ccccc1-c1ccccc1CSC(=N)N [Example 9, 2-(2′-carbamimidoylsulfanylmethyl-biphenyl-2-ylmethyl)-isothiourea]"
15,≥ 1000 nM,"N=C(N)NCCc1ccccc1Sc1ccccc1CCNC(=N)N [Example 5, (4-methylbenzenesulfonate)]"
